# Where two headings read alike, the source gives them in different places. Marks after values point to notes of the source that are not given here.
# Experiments:
# Ralstonia [1] = conditions: tomato plants transferred into hydroponic solutions inoculated with Ralstonia and previously treated with 3-IBA; more than 60% wilt in its absence; cited from earlier work
# Ralstonia solanacearum = format: in vivo; conditions: for Bacterial wilt severity: foliar application, tomato plants, scale 0=healthy to 4=dead plant
# Ralstonia [2] = conditions: solution added to Ralstonia culture liquid in physiological brine; cited from earlier work
Compound,Plants slightly wilted (Ralstonia [1]),"Bacterial wilt severity (Ralstonia solanacearum; higher concentration (2.0 lbs active ingredient per 100 gallons), rated 9/26/2000, six replications)","Bacterial wilt severity (Ralstonia solanacearum; higher concentration (2.0 lbs active ingredient per 100 gallons), rated 9/27/2000)","Bacterial wilt severity (Ralstonia solanacearum; higher concentration (2.0 lbs active ingredient per 100 gallons), rated 9/30/2000)","Bacterial wilt severity (Ralstonia solanacearum; higher concentration (2.0 lbs active ingredient per 100 gallons), rated 10/04/2000)","Bacterial wilt severity (Ralstonia solanacearum; higher concentration (2.0 lbs active ingredient per 100 gallons), rated 10/26/2000)","Bacterial wilt severity (Ralstonia solanacearum; low concentration (0.25 lbs active ingredient per 100 gallons), rated 9/26/2000, six replications)","Bacterial wilt severity (Ralstonia solanacearum; low concentration (0.25 lbs active ingredient per 100 gallons), rated 9/27/2000)","Bacterial wilt severity (Ralstonia solanacearum; low concentration (0.25 lbs active ingredient per 100 gallons), rated 9/30/2000)","Bacterial wilt severity (Ralstonia solanacearum; low concentration (0.25 lbs active ingredient per 100 gallons), rated 10/04/2000)","Bacterial wilt severity (Ralstonia solanacearum; low concentration (0.25 lbs active ingredient per 100 gallons), rated 10/26/2000)","Plants revived and recovering at the end of the trial (Ralstonia solanacearum; higher concentration, foliar treatment prior to inoculation, of 6 tomato plants)","State of the 6 treated plants by the end of the trial (Ralstonia solanacearum; low concentration, foliar treatment prior to inoculation, 6 tomato plants)",Ralstonia growth (turbidity of culture liquid) (Ralstonia [2])
"CC(CC(=O)O)c1c[nH]c2ccccc12 (centres unmarked) [3-IBA, 3-(3-indolyl) butanoic acid]",less than 10%,2.3,3.0,2.8,3.3,1.5***,2.5,3.0,4.0,3.8,4.0**,3 plants,all dead,–
C[C@@H](CC(=O)O)c1c[nH]c2ccccc12 [(S)-3-(3-indolyl) butanoic acid],–,–,–,–,–,–,–,–,–,–,–,–,–,suppression of Ralstonia growth

# Source: patent US6399646B1 (priority 2001, dated 2002)
